Measurements published in patent publication US20180228780A1, “3-(1H-PYRROLO[2,3-C]PYRIDIN-2-YL)-1H-INDAZOLES AND THERAPEUTIC USES THEREOF” (Samumed, LLC, priority 2015, published 2018).

Legend:
Assay type in all cases: cell-based
[1] = test system: Wnt activity (Sp5-Luc reporter, SW480 colon carcinoma cells); experiment: Screening assay for Wnt activity: Sp5-Luc reporter gene assay in SW480 cells; settings: Homo sapiens; for EC50: SW480 Sp5-Luc reporter, overnight incubation; for inhibition at 10 µM: SW480, read-out: percent inhibition at 10 μM
From the text: The screening assay for Wnt activity is described as follows. Reporter cell lines can be generated by stably transducing cancer cell lines (e.g., colon cancer) or primary cells (e.g., IEC-6 intestinal cells) with a lentiviral construct that includes a Wnt-responsive promoter driving expression of the firefly luciferase gene.
SW480 colon carcinoma cells were transduced with a lentiviral vector expressing luciferase with a human Sp5 promoter consisting of a sequence of eight TCF/LEF binding sites. SW480 cells stably expressing the Sp5-Luc reporter gene and a hygromycin resistance gene were selected by treatment with 150 μg/mL of hygromycin for 7 days. These stably transduced SW480 cells were expanded in cell culture and used for all further screening activities. […] For Sp5-Luc reporter gene assays, the cells were plated at 4,000 cells/well in 384-well plates with medium containing 1% fetal bovine serum and incubated overnight at 37° C. and 5% CO2. Following incubation, 20 μl of BrightGlo luminescence reagent (Promega) was added to each well of the 384-well assay plates. The plates were placed on an orbital shaker for 2 min and then luminescence was quantified using the Envision (Perkin Elmer) plate reader. Readings were normalized to DMSO only treated cells, and normalized activities were utilized for EC50 calculations using the dose-response log (inhibitor) vs. response-variable slope (four parameters) nonlinear regression feature available in GraphPad Prism 5.0 (or Dotmatics).

[2] = test system: Primary human fibroblasts derived from IPF patients (LL29 cells); experiment: Inhibition of the fibrotic process: αSMA staining in TGF-β1-treated LL29 fibroblasts; settings: Fibroblast; for EC50: 96 h, LL29 cells, TGF-β1 20 ng/mL, 4 days, % αSMA-positive cells; for inhibition at 10 µM: read-out: percent inhibition at 10 μM
From the text: Representative compounds were screened using primary human fibroblasts (derived from IFF patients) treated with TGF-β1 to determine their ability to inhibit the fibrotic process.
K. L., et.al., “RhoA signaling modulates cyclin D1 expression in human lung fibroblasts; implications for idiopathic pulmonary fibrosis”, Respiratory Research (2006), 7(1), 88] were obtained from American Type Culture Collection (ATCC) and expanded in F12 medium supplemented with 15% Fetal Bovine Serum and Penicillin/Streptomycin.
LL29 cells are plated at 1,500 cells/well in 80 μL/well F12 medium supplemented with 1% Fetal Bovine Serum. […] Wells treated with TGF-β1 and containing DMSO were used as controls. […] Following incubation for 4 days, SYTOX green nucleic acid stain (Life Technologies [Thermo Fisher Scientific]) was added to the wells at a final concentration of 1 μM and incubated at room temperature for 30 min.

SW480 colon cancer cells = experiment: Cell viability assay (CellTiter-Blue) in SW480 colon cancer cells; settings: Homo sapiens; for EC50: 96 h, SW480 cell viability, four days incubation; for inhibition at 10 µM: SW480, read-out: percent inhibition at 10 μM
Method: Representative compounds were screened using the following assay procedure to assess the effect on cell viability as described below.
Approximately 2×10^3 SW480 colon cancer cells were seeded into each well and allowed to incubate in the presence or absence of compound for four days at 37° C./5% CO2. Eight replicates of DMSO-treated cells served as controls and cells treated with compound were performed in duplicate.
After incubation, 20 μL of CellTiter-Blue (Promega) was added to each well allowed to incubate for approximately 3 hours. This reagent was a buffered solution which contains resazurin, metabolically active cells were able to reduce rezarurin (blue) into resorufin (pink) which was highly fluorescent. This measured fluorescence was used as a readout for cell viability.

[3] = test system: primary human mesenchymal stem cells (hMSCs); experiment: Induction of chondrogenesis in hMSCs (nodule imaging, Rhodamine B / Nile Red); settings: 6 days; for EC50: concentration required to induce 50% levels of chondrogenesis vs TGF-β3, read-out: Conc (nM) of 50% TGF-β3 activity; for Emax: relative to TGF-β3 (10 ng/mL) positive control, read-out: Max. Activity as % TGF-β3 activity
From the text: Representative compounds were screened using primary human mesenchymal stem cells (hMSCs) to determine their ability to induce chondrogenesis (process by which cartilage is developed).
Primary human mesenchymal stem cells (hMSCs) were purchased from Lonza (Walkersville, Md.) and expanded in Mesenchymal Stem Cell Growth Media (Lonza). Cells between passage 3 and 6 were used for the experiments.
Area of nodules in each well was normalized to the average of 3 DMSO treated wells on the same plate using Excel (Microsoft Inc.). The normalized averages (fold change over DMSO) of 2 or 3 replicate wells for each compound concentration were calculated. Due to solubility limitations of some of the compounds, curve fitting was incomplete leading to inaccurate EC50 determinations.
Using TGF-β3 as a positive control, the concentration of representative compounds required to induce 50% levels of chondrogenesis is reported. In addition, the maximum activity of each compound and the respective dose that each compound reached maximum chondrogenesis activity is reported.

IL-6 (THP-1 cells) = experiment: IL-6 inhibition in THP-1 monocytes (HTRF); settings: Homo sapiens; for EC50: IL-6 inhibition, THP-1 cells, HTRF, 10-point dose-response starting from 10 μM; for inhibition at 10 µM: THP-1, read-out: percentage in parentheses printed under EC50 >10
Method: Compound Screening: THP-1 cells were cultured in basal media with 1% FBS for 24 hours before the start of the assay. […] THP-1 cells were plated at 5000 cells/well in the 384-well plates and incubated at 37° C. for 2 h. 500 ng/mL of […] was added after 2 hours and cells were incubated for another 22 hours at 37° C. Plates were spun in a centrifuge for 1 minute at 10,000 rpm and a mixture of anti-IL6 XL665, and anti-IL6 Cryptate diluted in reconstitution buffer (Cisbio Inc.) was added to each well. Following incubation for 3 hrs at room temperature, Homogeneous Time-Resolved Fluorescence (HTRF) was measured using the Envision (Perkin Elmer) at 665 nm and […]. The ratio of fluorescence at 665 nm to 620 nm was used as a readout for IL6 quantification. All samples were processed in duplicate. Readings were normalized to DMSO treated cells and normalized activities were utilized for EC50 calculations using the dose-response log (inhibitor) vs. response-variable slope (four parameters) nonlinear regression feature available in GraphPad Prism 5.0 (or Dotmatics).

Structure (SMILES) | EC50 [1] | EC50 (SW480 colon cancer cells) | EC50 [3] | EC50 (IL-6 (THP-1 cells)) | EC50 [2] | Emax [3] | inhibition at 10 µM [1] | inhibition at 10 µM [2] | inhibition at 10 µM (SW480 colon cancer cells) | inhibition at 10 µM (IL-6 (THP-1 cells))
O=C(Nc1cncc(-c2ccc3[nH]nc(-c4cc5c(-c6cccnc6)cncc5[nH]4)c3c2)c1)c1ccccc1 [Compound 95] | > 10000 nM | > 10000 nM | 10 nM | 1710 nM | > 10000 nM | 69% | 32.4% | 34.2% | 22.7% | 
Nc1cncc(-c2ccc3[nH]nc(-c4cc5c(-c6ccccc6F)cncc5[nH]4)c3c2)c1 [Compound 59, 5-(3-(4-(2-Fluorophenyl)-1H-pyrrolo[2,3-c]pyridin-2-yl)-1H-indazol-5-yl)pyridin-3-amine] | 875 nM | > 10000 nM | 10 nM | 4500 nM | 2900 nM | 58% |  |  | 27.9% | 
c1cncc(-c2cncc3[nH]c(-c4n[nH]c5ccc(-c6cncc(CN7CCCCC7)c6)cc45)cc23)c1 [Compound 99, 5-(5-(Piperidin-1-ylmethyl)pyridin-3-yl)-3-(4-(pyridin-3-yl)-1H-pyrrolo[2,3-c]pyridin-2-yl)-1H-indazole] | > 10000 nM | 3370 nM |  | 5700 nM | 4040 nM | 40% | 31.2% |  |  | 
CCCC(=O)Nc1cncc(-c2ccc3[nH]nc(-c4cc5ccncc5[nH]4)c3c2)c1 [Compound 269, N-(5-(3-(1H-Pyrrolo[2,3-c]pyridin-2-yl)-1H-indazol-5-yl)pyridin-3-yl) butyramide] | 452 nM | 986 nM | 900 nM | 22 nM | 410 nM | 152% |  |  |  | 
c1cncc(-c2cncc3[nH]c(-c4n[nH]c5ccc(-c6cncnc6)cc45)cc23)c1 [Compound 111, 3-(4-(pyridin-3-yl)-1H-pyrrolo[2,3-c]pyridin-2-yl)-5-(pyrimidin-5-yl)-1H-indazole] | > 10000 nM | > 10000 nM | 2700 nM | > 10000 nM | > 10000 nM | 58% | 14.5% | 46.5% | 7.5% | 42.4%
Fc1cccc(-c2cncc3[nH]c(-c4n[nH]c5ccc(-c6cncc(CN7CCC(F)(F)C7)c6)cc45)cc23)c1 [Compound 26, 5-(5-((3,3-Difluoropyrrolidin-1-yl)methyl)pyridin-3-yl)-3-(4-(3-fluorophenyl)-1H-pyrrolo[2,3-c]pyridin-2-yl)-1H-indazole] | 160 nM | 734 nM | 2700 nM | 74 nM | 322 nM | 87% |  |  |  | 
c1ncc(-c2ccc3[nH]nc(-c4cc5c(N6CCCCC6)cncc5[nH]4)c3c2)cn1 [Compound 195, 3-(4-(Piperidin-1-yl)-1H-pyrrolo[2,3-c]pyridin-2-yl)-5-(pyrimidin-5-yl)-1H-indazole] | 1760 nM | 2900 nM |  | 5610 nM | 1080 nM | 38% |  |  |  | 

Now from value to compound, other results behind:

EC50 [1] | EC50 (SW480 colon cancer cells) | EC50 [3] | EC50 (IL-6 (THP-1 cells)) | Structure (SMILES) | EC50 [2] | Emax [3] | inhibition at 10 µM [1] | inhibition at 10 µM [2] | inhibition at 10 µM (SW480 colon cancer cells) | inhibition at 10 µM (IL-6 (THP-1 cells))
915 nM | 298 nM | 30 nM | 689 nM | CCCCC(=O)Nc1cncc(-c2ccc3[nH]nc(-c4cc5c(-c6ccoc6)cncc5[nH]4)c3c2)c1 [Compound 327] | 1340 nM | 122% |  |  |  | 
956 nM | 510 nM |  | 2580 nM | COc1cncc(-c2ccc3[nH]nc(-c4cc5c(-c6ccsc6)cncc5[nH]4)c3c2)c1 [Compound 676, 5-(5-Methoxypyridin-3-yl)-3-(4-(thiophen-3-yl)-1H-pyrrolo[2,3-c]pyridin-2-yl)-1H-indazole] | 434 nM | 40% |  |  |  | 
2900 nM | > 10000 nM |  | > 10000 nM | Cc1ncc(-c2ccc3[nH]nc(-c4cc5c(-c6ccncc6)cncc5[nH]4)c3c2)n1C [Compound 573, 5-(1,2-Dimethyl-1H-imidazol-5-yl)-3-(4-(pyridin-4-yl)-1H-pyrrolo[2,3-c]pyridin-2-yl)-1H-indazole] | 2160 nM | 28% |  |  | 30.3% | 11%
> 10000 nM | > 10000 nM | 100 nM | 187 nM | CCNCc1cncc(-c2ccc3[nH]nc(-c4cc5c(-c6cc(F)cc(CNS(C)(=O)=O)c6)cncc5[nH]4)c3c2)c1 [Compound 482, N-(3-(2-(5-(5-((Ethylamino)methyl)pyridin-3-yl)-1H-indazol-3-yl)-1H-pyrrolo[2,3-c]pyridin-4-yl)-5-fluorobenzyl)methanesulfonamide] | > 10000 nM | 58% | 29.8% | 17.1% | 24.3% | 
244 nM | 901 nM |  | 56 nM | CCC(=O)Nc1cncc(-c2ccc3[nH]nc(-c4cc5c(-c6cc(F)cc(CNS(C)(=O)=O)c6)cncc5[nH]4)c3c2)c1 [Compound 477, N-(5-(3-(4-(3-Fluoro-5-(methylsulfonamidomethyl)phenyl)-1H-pyrrolo[2,3-c]pyridin-2-yl)-1H-indazol-5-yl)pyridin-3-yl)propionamide] | 1640 nM | 29% |  |  |  | 
1840 nM | 3150 nM |  | 134 nM | c1cc2cc(-c3n[nH]c4ccc(-c5cncc(OCCN6CCCC6)c5)cc34)[nH]c2cn1 [Compound 658, 5-(5-(2-(Pyrrolidin-1-yl)ethoxy)pyridin-3-yl)-3-(1H-pyrrolo[2,3-c]pyridin-2-yl)-1H-indazole] | 925 nM | 45% |  |  |  | 
250 nM | 506 nM | 30 nM | > 10000 nM | Cn1cc(-c2ccc3[nH]nc(-c4cc5c(-c6cccnc6)cncc5[nH]4)c3c2)cn1 [Compound 556, 5-(1-Methyl-1H-pyrazol-4-yl)-3-(4-(pyridin-3-yl)-1H-pyrrolo[2,3-c]pyridin-2-yl)-1H-indazole] | > 10000 nM | 65% |  | 0% |  | 44.3%
